Measured values as given in US7943162B2, “Drug delivery device” (Alcon, Inc., priority 1999, dated 2011).

Assay: ocular pharmacokinetic study with rabbits implanted with ophthalmic drug delivery device 50 (LC-MS/MS tissue concentration)
Type: in vivo, New Zealand White rabbits
Conditions: device 50 implanted on outer sclera below Tenon's capsule
Description: Device 50 was constructed as shown in FIGS. 5 through 6B, with the following dimensions. […] Inner core 106 was a cylindrical tablet with a diameter of about 5.0 mm and a thickness of about 1.5 mm. […] The pharmaceutically active agent used in tablet 106 was 4,9(11)-Pregnadien-17α,21-diol-3,20-dione, an angiostatic steroid sold by Steraloids, Inc. of Wilton, N.H., and which is more fully disclosed in U.S. Pat. Nos. 5,770,592 and 5,679,666. The formulation of tablet 106 consisted of 99.75 weight percent 4,9(11)-Pregnadien-17α,21-diol-3,20-dione, and 0.25 weight percent magnesium stearate.
At one week after implantation, 4 rabbits were euthanized and their right eyes were enucleated. The device 50 was removed from the eyes, and the location of tablet 106 was marked on their sclerae. Following the removal of the anterior segment and the vitreous of each eye and inversion of the thus formed eye-cup, a 10 mm diameter circular zone of retinal tissue, concentric with and below the location of tablet 106 on the sclera, was harvested (the “target site”). […] All these tissues were separately homogenized, and the concentration of angiostatic steroid in each of these tissues was determined via an ocular pharmacokinetic study using high performance liquid chromatography and mass spectrometry analysis (LC-MS/MS). […]

levels of angiostatic steroid in the retina and the choroid at the second and third sites (second site remote from the target site, on the other side of the optic nerve, third site between the second site and the target site): at or near zero
SMILES: C[C@]12CCC(=O)C=C1CC[C@@H]1C2=CC[C@@]2(C)[C@H]1CC[C@]2(O)C(=O)CO [4,9(11)-Pregnadien-17α,21-diol-3,20-dione]
mean concentration of angiostatic steroid in the retina and the choroid at the target site as a function of time (right eye, tablet 99.75 wt% drug, target site below tablet, 1, 3, 6, 9, 12 weeks after implantation, up to twelve weeks): pharmaceutically effective and generally constant amount
